Reference: PubChem BioAssay AID434951 (Broad Institute, 2010)
Activity calls are given as the source filed them.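 Rule for the calls: active = a fitted half-maximal concentration EC50 for the rise in nuclear signal no higher than ten times the top dose tested; inconclusive = flat fit with activity between 30% and 70%, or unusable fit; inactive = EC50 beyond ten times the top dose.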

Target: Hypoxia-inducible factor 1-alpha (Homo sapiens) (UniProt Q16665)
Assay: HIF pathway activation, GFP-HIF1alpha translocation – imaging, fluorescence, U2OS GFP-HIF1alpha, confirmation (AID 434951)
Conditions: U2OS GFP-HIF1alpha nuclear intensity, high-content imaging

Hypoxia-inducible factor 1-alpha (Homo sapiens), sequence (Q16665 whole entry, looked up): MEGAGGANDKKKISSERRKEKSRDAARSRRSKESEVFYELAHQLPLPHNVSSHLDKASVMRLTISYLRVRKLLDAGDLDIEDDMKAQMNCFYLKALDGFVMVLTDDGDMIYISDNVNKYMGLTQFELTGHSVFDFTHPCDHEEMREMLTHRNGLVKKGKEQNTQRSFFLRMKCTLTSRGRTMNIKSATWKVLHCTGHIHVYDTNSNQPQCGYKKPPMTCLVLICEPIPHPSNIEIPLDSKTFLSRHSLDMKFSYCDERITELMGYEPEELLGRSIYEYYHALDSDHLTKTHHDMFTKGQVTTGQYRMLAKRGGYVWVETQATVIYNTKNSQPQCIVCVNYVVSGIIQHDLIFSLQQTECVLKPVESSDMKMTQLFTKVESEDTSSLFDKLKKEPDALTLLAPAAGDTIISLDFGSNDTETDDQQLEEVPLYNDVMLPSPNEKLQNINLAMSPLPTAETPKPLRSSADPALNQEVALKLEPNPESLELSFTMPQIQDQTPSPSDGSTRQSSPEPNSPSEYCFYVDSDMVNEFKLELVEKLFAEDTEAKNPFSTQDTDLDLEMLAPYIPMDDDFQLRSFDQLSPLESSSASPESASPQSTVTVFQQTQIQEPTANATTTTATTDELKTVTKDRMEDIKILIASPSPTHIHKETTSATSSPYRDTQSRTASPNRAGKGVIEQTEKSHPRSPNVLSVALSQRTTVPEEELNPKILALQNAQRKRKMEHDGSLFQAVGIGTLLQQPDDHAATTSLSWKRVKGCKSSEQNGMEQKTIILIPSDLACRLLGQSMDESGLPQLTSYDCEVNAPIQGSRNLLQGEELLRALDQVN

EC50	Structure (SMILES)
3.85 µM	CCC(=O)NC(c1ccc(C)cc1)c1ccc2cccnc2c1O (configuration not stated)
> 35 µM (inactive)	Cc1oc(-c2ccc(Cl)cc2)nc1CS(=O)CC(=O)NCCN1CCCCCC1 (configuration not stated)
> 35 µM (inactive)	CCOc1ccc(N2C(=O)CC(Sc3nc(C)cc(C)n3)C2=O)cc1 (configuration not stated)
10.9 µM	CCN(CC)c1ccc(/C=N/NC(=O)c2ccoc2C)c(O)c1
> 35 µM (inactive)	CCOc1cc(/C=N/NC(=O)c2cccnc2)ccc1OCc1ccc(C(=O)OC)o1
5.65 µM	Oc1c(CN2CCN(c3ccccc3)CC2)cc(Br)c2cccnc12
1.65 µM	O=[N+]([O-])c1cc(Cl)cc(/C=N\Nc2ccccn2)c1O
> 35 µM (inactive)	COc1ccc(C(=O)/C=C/C(=O)N(CC(=O)NC2CCCCC2)CC2CCCO2)c(O)c1 (configuration not stated)
4.69 µM	Cn1cccc1-c1cc(C(=O)N/N=C/c2cc(Br)ccc2O)[nH]n1
> 35 µM (inactive)	C=CCNC(=O)/C(=C/c1cn(-c2ccccc2)nc1-c1cccc([N+](=O)[O-])c1)NC(=O)c1ccccc1
> 35 µM (inactive)	Cc1ccc(Nc2nnc(-c3ccccc3N)o2)cc1C
4.41 µM	Cc1ccc(Nc2c(-c3ccccn3)nc3cccc(C)n23)cc1
> 35 µM (inactive)	Cc1sc2ncnc(Sc3nnnn3-c3ccc(Cl)cc3)c2c1C
> 35 µM (inactive)	CN(C)C(=O)CSc1nc2ccccc2n1Cc1ccccc1
> 35 µM (inactive)	O=c1oc2cc([N+](=O)[O-])ccc2nc1/C=C(\O)c1cccc(Br)c1
7.82 µM	CN1CCN(Cc2cc(COCc3ccccc3)c3cccnc3c2O)CC1
> 35 µM (inactive)	Cc1c(Cl)c([N+](=O)[O-])nn1CC(=O)NC12CC3CC(CC(C3)C1)C2
3.83 µM	Cc1cccnc1Nc1nc(-c2ccccn2)cs1
35.9 µM	C(/CCc1ccccc1)=N\Nc1nc2ccccc2[nH]1
10.5 µM	CCN(CC)c1ccc(/C=N/NC(=O)c2ccc3nc[nH]c3c2)c(O)c1
6.04 µM	COc1cccc(C(=O)N/N=C(/c2ccccc2)c2ccccn2)c1

EC50	Structure (SMILES)
31.4 µM	O=C(N/N=C/c1sc2ccccc2c1O)c1cccc2ccccc12
> 35 µM (inactive)	Cc1nc2nc3c(cn2n1)C(=O)CC(c1ccccc1)C3 (configuration not stated)
> 35 µM (inactive)	Cc1cc(=O)[nH]c(SCC(=O)Nc2nonc2C)n1
> 35 µM (inactive)	CCOC(=O)c1sc(Nc2cccc(Cl)c2)nc1C
> 35 µM (inactive)	CC(C)c1onc(C(=O)Nc2sc3c(c2C#N)CCC3)c1[N+](=O)[O-]
> 35 µM (inactive)	COc1ccc(CC(=O)NNC(=S)NCC2CC2)cc1OC
> 35 µM (inactive)	CS(=O)(=O)c1cccc(C(=O)N(CCc2ccccc2)Cc2cccs2)c1
17.8 µM	COc1ccc(C2NC(=S)NC3=C2CCCC3=C2SCCS2)cc1 (configuration not stated)
> 35 µM (inactive)	CCCCCCC1CCC(c2nc(-c3ccncc3)no2)CC1 (configuration not stated)
> 35 µM (inactive)	Cc1cccc2[nH]c(CN(C)C(=O)C3CCC(=O)N(C4CC4)C3)nc12 (configuration not stated)
> 35 µM (inactive)	CCn1ccnc1C(O)c1ccccc1OC (configuration not stated)
> 35 µM (inactive)	Cc1cc(C)c(C(=O)N2CCCC(N3CCN(c4cccc(C(F)(F)F)c4)CC3)C2)o1 (configuration not stated)
> 35 µM (inactive)	O=C(C1=NN[C@@H]2C(=O)N(c3cccc(C(F)(F)F)c3)C(=O)[C@H]12)C(c1ccccc1)c1ccccc1
> 35 µM (inactive)	Cc1ccc(S(=O)(=O)Nc2cc(-c3ccc(Cl)cc3)nn2C)cc1
> 35 µM (inactive)	Cn1cc(CN2CCC(C(=O)Nc3cccc(-c4cscn4)c3)CC2)cn1
12.3 µM	O=C(N/N=C/c1c(O)ccc2ccccc12)c1ccc(Br)o1
> 35 µM (inactive)	CCC1CCCCN1Cc1c(O)ccc2c(=O)c(-c3ccccc3OC)coc12 (configuration not stated)
> 35 µM (inactive)	Cc1ccc(C2(O)CN(c3ccccc3C)C3=[N+]2CCS3)cc1 (configuration not stated)
> 35 µM (inactive)	CCc1cnccc1CCC(=O)Nc1ccccc1C
> 35 µM (inactive)	CCCCOC(=O)c1ccc(NC(=S)NC(=O)c2c(Br)c(C)nn2C)cc1
3.84 µM	C/C(=N\Nc1ccc2nncn2n1)c1ccccn1
